Entries after “also recorded” stand apart in the source; their conditions may differ.
Experiments:
[1] = Simultaneous dual-radiotracer SPECT/CT imaging of 99mTc-Sestamibi and 201Tl-Cl uptake; type: in vivo, mouse and rat; conditions: FIG. 1; for retention in muscle: i.v. single injection of both agents, imaging 3 hours later
Procedure: This example describes an imaging approach for assessing skeletal muscle health by administering ^99mTc-Sestamibi and ^201Tl—Cl both in a single intravenous injection and then simultaneously detecting their accumulation into skeletal muscle through SPECT imaging via distinct radiation energy windows, which are specific for each isotope. Through this approach, each imaging agent alone, as well as the change in uptake of one agent relative to the other, was measured, permitting evaluation of multiple physiological processes in muscle simultaneously.
Imaging agents (^99mTc-Sestamibi and ^201Tl-Chloride) were ordered from commercial radiopharmacies for calibration and delivery on each day of SPECT imaging. Imaging agents were administered by intravenous injection in the lateral tail-vein. Animals were returned to their cages after injection for the distribution period or placed directly on the imaging system for SPECT acquisition, depending on the imaging protocol and desired time-points. For the imaging session, subjects were anesthetized using a gas mixture of isoflurane and oxygen. In-vivo SPECT and CT data were acquired using the NanoSPECT/CT® (Bioscan, Washington, D.C.), a dual modality imaging system that combines a 4-headed SPECT camera with a computed tomography (CT) acquisition system on the same axis of rotation. During imaging, subjects were placed on a heated bed with integrated anesthesia delivery and bed heating. The animals' body temperatures were maintained at 36 to 37° C. for the duration of image acquisition. Each imaging time-point included three scans: a planar x-ray scout scan, an x-ray CT scan for anatomical reference (6-9 min., 45-65 KVp, 180 angular projections per FOV), and a SPECT scan (20-90 min., 20 angular projections per FOV). SPECT data were reconstructed using the HiSPECT processing module (Scivis GmbH, Gottingen, Germany). […] Uptake and concentration of radiotracer were quantified in select regions-of-interest (ROI) using the VivoQuant™ post-processing suite. […]

[2] = prepared radiopharmaceutical; cited from earlier work
[3] = in vivo; cited from earlier work
skeletal muscle [4] = assay: Effect of continuous isoflurane anesthesia on muscle uptake of the two radiopharmaceutical agents (SPECT); type: in vivo; conditions: continuous anesthesia through 30 minute uptake period vs awake uptake period; right and left legs; FIG. 3
Procedure: Imaging agents (^99mTc-Sestamibi and ^201Tl-Chloride) were ordered from commercial radiopharmacies for calibration and delivery on each day of SPECT imaging. Imaging agents were administered by intravenous injection in the lateral tail-vein. Animals were returned to their cages after injection for the distribution period or placed directly on the imaging system for SPECT acquisition, depending on the imaging protocol and desired time-points. For the imaging session, subjects were anesthetized using a gas mixture of isoflurane and oxygen. In-vivo SPECT and CT data were acquired using the NanoSPECT/CT® (Bioscan, Washington, D.C.), a dual modality imaging system that combines a 4-headed SPECT camera with a computed tomography (CT) acquisition system on the same axis of rotation. During imaging, subjects were placed on a heated bed with integrated anesthesia delivery and bed heating. The animals' body temperatures were maintained at 36 to 37° C. for the duration of image acquisition. […] Uptake and concentration of radiotracer were quantified in select regions-of-interest (ROI) using the VivoQuant™ post-processing suite.
This need for imaging under anesthesia in animals is not necessary in human imaging studies. […] Quantitative units of radioactivity per volume was expressed as uptake: percent injected dose (% ID), activity (mCi, kBq). […]

skeletal muscle [5] = assay: Effect of neuromuscular stimulation with edrophonium on 99mTc-Sestamibi and 201Tl-Cl uptake into muscle (SPECT/CT); type: in vivo, rats
Procedure: In order to assess the action of neuromuscular stimulation on ^99mTc-Sestamibi and ^201Tl—Cl uptake into muscle we used the acetylcholinesterase inhibitor edrophonium (0.2 mg/kg, i.v.) to enhance ongoing neuromuscular synaptic transmission. We used three different cohorts of animals (n=3). In one cohort we examined baseline neuromuscular activity by giving the ^99mTc-Sestamibi and ^201Tl—Cl (listed as m/t in figure) at time zero and acquiring images under brief isoflurane anesthesia at 30 minutes post injection. Another cohort received edrophonium injection immediately following the m/t dosing but prior to the imaging under anesthesia. The last cohort received the edrophonium 30 minutes prior to the m/t dosing. This approach standardized the anesthesia and imaging phase of the experiment while making the edrophonium dose timing the only variable.
FIG. 4 is an exemplary schematic diagram of an experiment assessing the impact of edrophonium on the pharmacokinetics of ^99mTc-Sestamibi and ^201Tl—Cl. ^99mTc-Sestamibi and ^201Tl—Cl were imaged in three cohorts of rats (n of 3 each): control/baseline; prior to injection of 0.2 mg/kg of edrophonium; following injection of 0.2 mg/kg of edrophonium. Whole body SPECT/CT images were collected 30 minutes post-injection of the mixed ^99mTc-Sestamibi and ^201Tl—Cl dose. The drugs' gamma emissions of the radioisotopes (^99mTc and ^201Tl) were collected in separate energy windows, permitting simultaneous imaging of the relevant radiopharmaceuticals. […] Thallium uptake was increased by the introduction of edrophonium in control rats as indicated qualitatively by brighter muscle uptake on a common scale.
However, either pre- or post-m/t, edrophonium dosing had no effect on ^99mTc-Sestamibi uptake into muscle. FIG. 6 depicts comparison of radiopharmaceutical uptake in skeletal muscle between two imaging paradigms. The ‘+’ represents subjects that received an edrophonium injection (i.v.) immediately after radiotracer administration. […] All other aspects of data collection were identical between the ‘+’ and ‘−’ scenarios. Quantitative units of radioactivity per volume was expressed as uptake: percent injected dose (% ID), activity (mCi, kBq).

[6] = edrophonium i.v. immediately after radiotracer administration vs none, FIG. 6

## [Cl][201Tl] [^201Tl—Cl, ^201Thallium-Chloride]
[1]
  retention in muscle: consistent retention
[1]; i.v., imaging 3 hours post-injection
  muscle accumulation, extent relative to 99mTc-Sestamibi: more widespread

## ^99mTc-Teboroxime
[2]
  stability: 6 h
[3]
  biological half-life: short
  extraction efficiency: high

## FC(F)OC(Cl)C(F)(F)F (centres unmarked) [isoflurane]
Skeletal muscle [4]
  accumulation of both agents (99mTc-Sestamibi and 201Tl-Cl) into muscle: inhibited

## CC[N+](C)(C)c1cccc(O)c1 [edrophonium]
Skeletal muscle [5]; edrophonium 0.2 mg/kg i.v., either pre- or post-m/t dosing, images 30 minutes post-injection
  99mTc-Sestamibi uptake into muscle: no effect
Skeletal muscle [5]; edrophonium 0.2 mg/kg i.v., pre- or post-m/t dosing vs baseline, images 30 minutes post-injection, FIG. 5
  201Tl uptake into muscle: dramatically enhanced; also recorded: increased
Skeletal muscle [5]; [6]
  99mTc-Sestamibi uptake in skeletal muscle, statistical evaluation: not
  201Tl uptake in skeletal muscle, statistical evaluation: highly significant edrophonium effect

## [C-]#[N+]CC(C)(C)OC.[C-]#[N+]CC(C)(C)OC.[C-]#[N+]CC(C)(C)OC.[C-]#[N+]CC(C)(C)OC.[C-]#[N+]CC(C)(C)OC.[C-]#[N+]CC(C)(C)OC.[Tc] [^99mTc-Sestamibi]
[1]
  retention in muscle: consistent retention
[2]
  stability: 6 h
[3]
  biological half-life: long
  extraction efficiency: high

— patent US11040119B2, “Compositions and methods for assessing neuromuscular function” (Biogen MA Inc., priority 2013, dated 2021)
